Source: patent publication US20060160773A1, “Combretastatin derivatives with cytotoxic action” (priority 2003, published 2006)
Where two headings read alike, the source gives them in different places. Marks after values point to notes of the source that are not given here.

How the values were obtained:
[1] = system: Bovine microcirculatory endothelial cells (BMEC); test: Cytotoxicity test (sulforodamine B), BMEC; assay type: cell-based; settings: read-out: IC50 ± SE
Procedure: (§1) The cytotoxic effect of our derivatives was evaluated in series of human and murine cell lines.
Bovine microcirculatory endothelial cells (BMEC), isolated from bovine adrenal glands, were maintained in culture in DMEM containing 20% FBS, 50 μg/ml of bovine brain extract (BBE), 50 units/ml of heparin (SIGMA), 100 units/ml of gentami-cin (SIGMA) and 10 mg/ml of L-glutamine (Hyclone). EA-hy926, an immortalised hybridoma of HUVEC and adenocarcinoma cells, obtained from the University of Bari Department of Biomedical Sciences and Human Oncology, was cultured in DMEM added with 10% FBS and gentamicin.
(§2) For the cytotoxicity test the cells were seeded at variable densities according to cell type in 96-well plates in normal culture medium (200 μl/well) and incubated for 24 hours at 37° C. On the next day, the study substances were added at scalar concentrations and the cells were incubated for a further 24 hours at 37° C. in a humidified atmosphere containing 5% CO2. At the end of the incubation period the medium containing the substances was removed and three washings with PBS were performed. At the end of the washings 200 μl/well of fresh medium were added and the plates were incubated at 37° C. for a further 48 hours. At the end of this incubation period the culture medium was removed by overturning the plates and 200 μl/well of PBS and 50 μl of 80% cold trichloroacetic acid (TCA) were added. The plates were then incubated in ice. After 1 h the TCA was removed, the plates were washed three times by immersion in distilled water and dried first on blotting paper and then in the oven. 200 μl of 0.4% sulforodamine B in 1% acetic acid were then added to all wells. The plates were incubated at room temperature for a further 30 minutes. The sulforodamine B was removed by overturning, the plates were washed three times by immersion in 1% acetic acid, and then dried first on blotting paper and then in the oven. 200 μl of Tris base 10 mM were then added to all wells and the plates were placed under stirring for at least 20 min. The optical density was measured by spectrophotometric readout at 540 nm.
(§3) In the same table are reported the IC50 of ST2897, ST2898 and ST2899 on BMEC.

[2] = system: human NCI-H460 lung cancer cells; test: Anticancer activity in animal model of human lung carcinoma (NCI-H460 s.c. in nude CD1 mice); assay type: in vivo
Procedure: The anticancer activity of ST2495 and ST2496 was assayed in an animal model of human lung carcinoma.
In this model, human NCI-H460 lung cancer cells at a density of 3×10^6 cells/mouse were injected subcutaneously in the right flank of nude CD1 mice. […]
All the animals were weighed during the course of the treatment to adjust the drug administration volume and to record the percentage loss of body weight (% BWL).
Tumour growth was assessed by measuring the shorter diameter (width) and the longer diameter (length) of each tumour twice a week with a Vernier caliper, and the anticancer activity was evaluated in terms of percentage inhibition of tumour growth. The tumour volume was calculated using the following formula: tumour volume (TV) in mm^3=[length (mm)×width (mm)^2]/2. The percentage inhibition (% TVI) was calculated according to the following equation: 100−[(mean tumour volume of the treated group/mean tumour volume of the control group)×100]. A value of P≦0.05 was regarded as statistically significant.

[3] = system: HCT 116 human colorectal carcinoma; test: Cytotoxicity test (sulforodamine B), HCT 116; assay type: cell-based
Procedure: as §1
(§4) The following cell lines, purchased from ATCC, were cultured according to the manufacturer's instructions: MeWo human melanoma, NCI-H460 human lung cancer, LoVo human colon adenocarcinoma, PC3 human prostate carcinoma, MES-SA human uterine sarcoma, HCT 116 human colorectal carcinoma, MCF-7 human breast carcinoma.
as §2, §3

[4] = system: MCF-7 human breast carcinoma; test: Cytotoxicity test (sulforodamine B), MCF-7; assay type: cell-based
Procedure: as §1, §4, §2, §3

[5] = system: Human umbilical vein endothelial cells (HUVEC); test: Cytotoxicity test (sulforodamine B), HUVEC; assay type: cell-based; settings: read-out: IC50 ± SE
Procedure: as §1
Human umbilical vein endothelial cells (HUVEC), from the BioWhittaker company, were maintained in EGM-2 culture medium (BioWhittaker).
as §2, §3

[6] = system: NCI-H460 human lung cancer; test: Cytotoxicity test (sulforodamine B), NCI-H460; assay type: cell-based
Procedure: as §1, §4, §2, §3

MeWo human melanoma = test: Cytotoxicity test (sulforodamine B), MeWo; assay type: cell-based; settings: read-out: IC50 ± SE
Procedure: as §1, §4, §2, §3

[7] = system: A2780 human ovarian carcinoma line; test: Cytotoxicity test (sulforodamine B), A2780; assay type: cell-based
Procedure: as §1
(§5) The M109 murine lung cancer line, the HT29 human colon adenocarcinoma line, the A2780 human ovarian carcinoma line, obtained from the Milan Tumour Institute, were cultured in RPMI containing 10% FBS and antibiotics.
as §2, §3

[8] = system: MES-SA human uterine sarcoma; test: Cytotoxicity test (sulforodamine B), MES-SA; assay type: cell-based; settings: read-out: IC50 ± SE
Procedure: as §1, §4, §2, §3

[9] = system: HT29 human colon adenocarcinoma line; test: Cytotoxicity test (sulforodamine B), HT29; assay type: cell-based
Procedure: as §1, §5, §2, §3

[10] = system: B16/BL6 murine melanoma line; test: Cytotoxicity test (sulforodamine B), B16/BL6; assay type: cell-based
Procedure: as §1
The B16/BL6 murine melanoma line, obtained from the M. Negri Institute in Milan, was cultured in DMEM containing 10% FBS and antibiotics.
as §2, §3

[11] = Evaluation of cardiovascular parameters (blood pressure, heart rate) in anaesthetised rats; assay type: in vivo; settings: 20 or 40 mg/kg injected in the jugular vein, anaesthetised Wistar rats (FIG. 1)
Procedure: Combretastatin A4, its prodrug ST2494 and our water soluble selected compounds ST2495 and ST2496, diluted at the doses of 20 or 40 mg/kg in saline solution or for combretastatin A4 in 5% DMSO, were injected in the jugular vein of Wistar rats anaesthetised with 55 mg/kg Nembutal. The parameter considered were blood pressure and heart rate.

[12] = i.p. 30 mg/kg twice/day, qd5x/w, day 4 to day 22
[13] = i.p. 30 mg/kg, qd5x/w once a day, day 4 to day 22
[14] = i.v. 60 mg/kg, q2dx6, day 4 to day 16
[15] = i.v. 90 mg/kg, q2dx6, day 4 to day 16
[16] = p.o. 30 mg/kg twice/day, qd5x/w, day 4 to day 22
[17] = p.o. 60 mg/kg twice/day, qd5x/w, day 4 to day 22
[18] = 24 h exposure, 48 h recovery, SRB
[19] = i.v. 60 mg/kg, q2dx6, day 5 to day 17
[20] = i.v. 90 mg/kg, q2dx6, day 5 to day 17
[21] = p.o. 30 mg/kg, qdx5/w, day 4 to day 14

For `COc1ccc(/C=C\c2cc(OC)c3ccoc3c2)cc1O` [ST2897, Cis-2-Methoxy-5-[2-(4-methoxy-benzofuran-6-yl)-vinyl]-phenol], the IC50 ([1]; Bos taurus, Endothelial cell) was 0.035 ± 0.0018 µM.

With “Disodium 6[(Z)-2-(3,4,5-trimethoxyphenyl)ethenyl]-1-benzo-thiophen-4-ol-4-O-phospohate [ST2495]” the “anticancer activity (summary in words)” value ([2]; NCI-H460 in nude mice, i.p., p.o. and i.v. routes) was “proved active with all the administration routes”, the “% BWL” value [2, 12] was 0% and the Mortality [2, 12] was 0/8. For the same molecule, the “% TVI” value ([2]; i.p. 30 mg/kg twice/day, qd5x/w, day 15 after tumor inoculation) was 75** %, the “% TVI” value ([2]; i.p. 30 mg/kg twice/day, qd5x/w, day 22 after tumor inoculation) was 72** % and the “% BWL” value [2, 13] was 4%. The Mortality [2, 13] was 0/8, the “% TVI” value ([2]; i.p. 30 mg/kg, qd5x/w once a day, day 15 after tumor inoculation) was 32** % and the “% TVI” value ([2]; i.p. 30 mg/kg, qd5x/w once a day, day 22 after tumor inoculation) was 38* %. For the same molecule, the “% BWL” value [2, 14] was 1%, the Mortality [2, 14] was 0/8 and the “% TVI” value ([2]; i.v. 60 mg/kg, q2dx6 day 4 to 16, day 15 after tumor inoculation) was 84** %. The “% TVI” value ([2]; i.v. 60 mg/kg, q2dx6 day 4 to 16, day 22 after tumor inoculation) was 73** %, the “% BWL” value [2, 15] was 0% and the Mortality [2, 15] was 0/8. The “% TVI” value ([2]; i.v. 90 mg/kg, q2dx6 day 4 to 16, day 15 after tumor inoculation) was 81** %, the “% TVI” value ([2]; i.v. 90 mg/kg, q2dx6 day 4 to 16, day 22 after tumor inoculation) was 62** % and the “% BWL” value [2, 16] was 0%. The Mortality [2, 16] was 0/8, the “% TVI” value ([2]; p.o. 30 mg/kg twice/day, qd5x/w, day 15 after tumor inoculation) was 42** % and the “% TVI” value ([2]; p.o. 30 mg/kg twice/day, qd5x/w, day 22 after tumor inoculation) was 30* %. For the same molecule, the “% BWL” value [2, 17] was 1%, the Mortality [2, 17] was 0/8 and the “% TVI” value ([2]; p.o. 60 mg/kg twice/day, qd5x/w, day 15 after tumor inoculation) was 79** %. The “% TVI” value ([2]; p.o. 60 mg/kg twice/day, qd5x/w, day 22 after tumor inoculation) was 67** %, the IC50 ([3]; HCT-116, 24 h exposure, 48 h recovery, SRB, read-out: IC50 ± SE) was 3 ± 0.102 µM and the IC50 ([1]; BMEC, 24 h exposure, 48 h recovery, SRB) was 0.64 ± 0.04 µM. For the same molecule, the IC50 ([4]; MCF-7, 24 h exposure, 48 h recovery, SRB, read-out: IC50 ± SE) was 0.693 ± 0.021 µM, the IC50 [5, 18] was 0.083 ± 0.00206 µM and the IC50 ([6]; NCI-H460, 24 h exposure, 48 h recovery, SRB, read-out: IC50 ± SE) was 0.62 ± 0.065 µM. For the same molecule, the IC50 (MeWo human melanoma; [18]) was 0.83 ± 0.00013 µM, the IC50 ([7]; A2780, 24 h exposure, 48 h recovery, SRB, read-out: IC50 ± SE) was 0.5 ± 0.02 µM and the IC50 ([8]; MESSA, 24 h exposure, 48 h recovery, SRB) was 1.42 ± 0.049 µM. The IC50 ([9]; HT29, 24 h exposure, 48 h recovery, SRB, read-out: IC50 ± SE) was > 10 µM and the IC50 ([10]; B16/BL6, 24 h exposure, 48 h recovery, SRB, read-out: IC50 ± SE) was > 10 µM.

In the case of `COc1ccc(/C=C\c2cc(OC)c3ccsc3c2)cc1O` [ST2899, Cis-2-Methoxy-5-[2-(4-methoxy-benzo[b]thiophen-6-yl)-vinyl]-phenol], the IC50 ([1]; Bos taurus, Endothelial cell) is reported as < 0.04 µM.

`COc1ccc(/C=C\c2cc(OC)c3occc3c2)cc1O` [ST2898, Cis-2-Methoxy-5-[2-(7-methoxy-benzofuran-5-yl)-vinyl]-phenol] showed an IC50 ([1]; Bos taurus, Endothelial cell) of 0.035 ± 0.0003 µM.

For `COc1cc(/C=C\c2cc(OP(=O)(O)O)c3ccoc3c2)cc(OC)c1OC` [ST2496, Disodium 6[(Z)-2-(3,4,5-trimethoxyphenyl)ethenyl]-1-benzo-furan-4-ol 4-O-phosphate], the blood pressure [11] was “did not show significant effect”, the heart rate [11] was “did not show significant effect” and the “% BWL” value [2, 19] was 1%. The Mortality [2, 19] was 0/8, the “% TVI” value ([2]; i.v. 60 mg/kg, q2dx6 day 5 to 17, day 14 after tumor inoculation) was 48** % and the “% TVI” value ([2]; i.v. 60 mg/kg, q2dx6 day 5 to 17, day 21 after tumor inoculation) was 53** %. The “% BWL” value [2, 20] was 1%, the Mortality [2, 20] was 0/8 and the “% TVI” value ([2]; i.v. 90 mg/kg, q2dx6 day 5 to 17, day 14 after tumor inoculation) was 57*** %. The “% TVI” value ([2]; i.v. 90 mg/kg, q2dx6 day 5 to 17, day 21 after tumor inoculation) was 56** %, the “% TVI” value ([2]; p.o. 30 mg/kg, qdx5/w day 4 to 14, day 14 after tumor inoculation) was 48* % and the “% TVI” value ([2]; p.o. 30 mg/kg, qdx5/w day 4 to 14, day 21 after tumor inoculation) was 46* %. The “% BWL” value [2, 21] was 1%, the Mortality [2, 21] was 0/8 and the IC50 ([3]; Homo sapiens, HCT-116, read-out: IC50 ± SE) was 1.68 ± 0.07 µM. The IC50 ([1]; Bos taurus, Endothelial cell) was 0.34 ± 0.016 µM, the IC50 ([4]; Homo sapiens, MCF7, read-out: IC50 ± SE) was 0.646 ± 0.029 µM and the IC50 ([5]; Homo sapiens) was 0.085 ± 0.0012 µM. For the same molecule, the IC50 ([6]; Homo sapiens, NCI-H460, read-out: IC50 ± SE) was 0.78 ± 0.0034 µM, the IC50 (MeWo human melanoma; Homo sapiens) was 0.82 ± 0.0077 µM and the IC50 ([7]; Homo sapiens, A2780, read-out: IC50 ± SE) was 0.26 ± 0.006 µM. The IC50 ([8]; Homo sapiens, MES-SA) was 0.5 ± 0.05 µM, the IC50 ([9]; Homo sapiens, HT-29, read-out: IC50 ± SE) was 3.9 ± 0.07 µM and the IC50 ([10]; Mus musculus, B16-BL6, read-out: IC50 ± SE) was 4.14 ± 0.49 µM.
